≈ marks a conversion by molar mass, not a printed value.
How the values were obtained:
Staphylococcus aureus = assay: Antimicrobial activity against Staphylococcus aureus ATCC 25923; type: functional
Nannizzia gypsea = assay: Antimicrobial activity against Microsporum gypseum SH-MU-4; type: functional

| SMILES | MIC (Staphylococcus aureus) | MIC (Nannizzia gypsea) |
| --- | --- | --- |
| C=C[C@]1(C)C=C2C(=O)[C@]3(O)OC[C@@]4(CCCC(C)(C)[C@@]43O)[C@@]2(O)[C@H](O)C1 [DIAPORTHEIN B] | 87.8 µM (≈ 32 µg/mL) | – |
| COc1ccc(C[C@@H]2NC(=O)[C@@]34OC(=O)O/C=C/[C@@](C)(O)C(=O)[C@@H](C)C/C=C/[C@H]3[C@H](O)[C@](C)(O)[C@@H](C)[C@@H]24)cc1 [SCOPARASIN B] | – | 30.3 µM (≈ 16.5 µg/mL) |

From ChEMBL document CHEMBL1157959, “Pimarane diterpene and cytochalasin derivatives from the endophytic fungus Eutypella scoparia PSU-D44” (2006)
